According to patent publication US20050272720A1 (priority 2004, published 2005):

Assay: Solid-state stability of olanzapine acetate under normal conditions
Format: physicochemical
Source text: The olanzapine acetate in solid state is a particulate material, with no or minimal tendency of reversible absorption of water from the environment, and with good handling properties.

Cc1cc2c(s1)Nc1ccccc1N=C2N1CCN(C)CC1 [olanzapine acetate]
stability under normal conditions of temperature and moisture: sufficiently stable
